Measurements taken from patent publication US6914045B2, “Glycopeptide antibiotics” (Wyeth Holdings Corporation, priority 2001, dated 2005).
Values after ≈ are worked out from the molar mass of the structure shown.

Legend:
Assay in all cases: in vitro antibacterial evaluation, MIC by broth dilution
Format in all cases: cell-based
[1] = tested on: Enterococcus sp.; conditions: broth dilution, 18 hours at 35° C.
How it was run: (§1)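 Broth dilution per NCCLS standard M7-A2 in Muller-Hinton II […], with an inoculum of 5×10^5 CFU/mL and antibiotic spanning 64-0.06 μg/mL. The MIC is the lowest concentration that inhibits growth of the organism.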

[2] = tested on: Escherichia coli
How it was run: as §1

[3] = tested on: Staphylococcus sp.; conditions: broth dilution, 18 hours at 35° C.; for MIC Staphylococcus aureus (GC 1131): strain GC 1131
How it was run: as §1

[4] = tested on: Streptococcus sp.; conditions: broth dilution, 18 hours at 35° C.
How it was run: as §1

MIC Enterococcus avium (GC 4558) ([1]; Enterococcus avium (GC 4558)): 8 µg/mL (≈ 5.55 µM)
MIC Enterococcus faecalis (ATCC 29212) ([1]; Enterococcus faecalis (ATCC 29212)): 8 µg/mL (≈ 5.55 µM)
MIC Enterococcus faecalis (GC 2242) ([1]; Enterococcus faecalis (GC 2242)): 8 µg/mL (≈ 5.55 µM)
MIC Enterococcus faecalis (GC 2691) ([1]; Enterococcus faecalis (GC 2691)): 8 µg/mL (≈ 5.55 µM)
MIC Enterococcus faecalis (GC 3059) ([1]; Enterococcus faecalis (GC 3059)): 8 µg/mL (≈ 5.55 µM)
MIC Enterococcus faecalis (GC 4552) ([1]; Enterococcus faecalis (GC 4552)): 8 µg/mL (≈ 5.55 µM)
MIC Enterococcus faecalis (GC 4553) ([1]; Enterococcus faecalis (GC 4553)): 8 µg/mL (≈ 5.55 µM)
MIC Enterococcus faecalis (GC 4554) ([1]; Enterococcus faecalis (GC 4554)): 8 µg/mL (≈ 5.55 µM)
MIC Enterococcus faecalis (GC 6189) ([1]; Enterococcus faecalis (GC 6189)): 8 µg/mL (≈ 5.55 µM)
MIC Enterococcus faecium (GC 2243) ([1]; Enterococcus faecium (GC 2243)): 8 µg/mL (≈ 5.55 µM)
MIC Enterococcus faecium (GC 4556) ([1]; Enterococcus faecium (GC 4556)): 8 µg/mL (≈ 5.55 µM)
MIC Enterococcus faecium (GC 4557) ([1]; Enterococcus faecium (GC 4557)): 2 µg/mL (≈ 1.39 µM)
MIC Enterococcus faecalis (ATCC 29212) ([1]; strain ATCC 29212): 8 µg/mL (≈ 5.55 µM)
MIC Enterococcus faecalis (GC 2242) ([1]; strain GC 2242): 8 µg/mL (≈ 5.55 µM)
MIC Enterococcus faecium (GC 2243) ([1]; strain GC 2243): 8 µg/mL (≈ 5.55 µM)
MIC Enterococcus faecalis (GC 2691) ([1]; strain GC 2691): 8 µg/mL (≈ 5.55 µM)
MIC Enterococcus faecalis (GC 3059) ([1]; strain GC 3059): 8 µg/mL (≈ 5.55 µM)
MIC Enterococcus faecalis (GC 4552) ([1]; strain GC 4552): 8 µg/mL (≈ 5.55 µM)
MIC Enterococcus faecalis (GC 4553) ([1]; strain GC 4553): 8 µg/mL (≈ 5.55 µM)
MIC Enterococcus faecalis (GC 4554) ([1]; strain GC 4554): 8 µg/mL (≈ 5.55 µM)
MIC Enterococcus faecium (GC 4556) ([1]; strain GC 4556): 8 µg/mL (≈ 5.55 µM)
MIC Enterococcus faecium (GC 4557) ([1]; strain GC 4557): 2 µg/mL (≈ 1.39 µM)
MIC Enterococcus avium (GC 4558) ([1]; strain GC 4558): 8 µg/mL (≈ 5.55 µM)
MIC Enterococcus faecalis (GC 6189) ([1]; strain GC 6189): 8 µg/mL (≈ 5.55 µM)
MIC Escherichia coli (ATCC 25922) ([2]; strain ATCC 25922, 18 hours at 35° C.): >64 µg/mL
MIC Escherichia coli (GC 4559) ([2]; strain GC 4559, 18 hours at 35° C.): 64 µg/mL (≈ 44.4 µM)
MIC Escherichia coli (GC 4560) ([2]; strain GC 4560, 18 hours at 35° C.): <0.5 µg/mL
MIC Staphylococcus aureus (GC 1131) ([3]; inoculum 5×10^5 CFU/mL): 2 µg/mL (≈ 1.39 µM)
MIC Staphylococcus aureus (ATCC 29213) ([3]; strain ATCC 29213): 2 µg/mL (≈ 1.39 µM)
MIC Staphylococcus aureus (GC 1131) [3]: 2 µg/mL (≈ 1.39 µM)
MIC Staphylococcus aureus (GC 3051) ([3]; strain GC 3051): 2 µg/mL (≈ 1.39 µM)
MIC Staphylococcus aureus (GC 3053) ([3]; strain GC 3053): 4 µg/mL (≈ 2.78 µM)
MIC Staphylococcus aureus (GC 4541) ([3]; strain GC 4541): 2 µg/mL (≈ 1.39 µM)
MIC Staphylococcus aureus (GC 4542) ([3]; strain GC 4542): 2 µg/mL (≈ 1.39 µM)
MIC Staphylococcus aureus-SMITH (GC 4543) ([3]; strain GC 4543): 2 µg/mL (≈ 1.39 µM)
MIC Staphylococcus aureus (GC 4544) ([3]; strain GC 4544): 2 µg/mL (≈ 1.39 µM)
MIC Staphylococcus aureus (GC 4545) ([3]; strain GC 4545): 2 µg/mL (≈ 1.39 µM)
MIC Coagulase Negative Staphylococcus (GC 4547) ([3]; strain GC 4547): 1 µg/mL (≈ 0.694 µM)
MIC Coagulase Negative Staphylococcus (GC 4548) ([3]; strain GC 4548): 1 µg/mL (≈ 0.694 µM)
MIC Coagulase Negative Staphylococcus (GC 4549) ([3]; strain GC 4549): 1 µg/mL (≈ 0.694 µM)
MIC Coagulase Negative Staphylococcus (GC 4551) ([3]; strain GC 4551): 1 µg/mL (≈ 0.694 µM)
MIC Coagulase Negative Staphylococcus (GC 6257) ([3]; strain GC 6257): 1 µg/mL (≈ 0.694 µM)
MIC Staphylococcus aureus-SMITH (GC 4543) ([3]; strain SMITH GC 4543): 2 µg/mL (≈ 1.39 µM)
MIC Streptococcus agalactiae (GC 4564) ([4]; Streptococcus agalactiae (GC 4564)): 1 µg/mL (≈ 0.694 µM)
MIC Streptococcus pneumoniae (ATCC 6301) ([4]; Streptococcus pneumoniae (ATCC 6301)): <0.5 µg/mL
MIC Streptococcus pneumoniae (GC 1894) ([4]; Streptococcus pneumoniae (GC 1894)): <0.5 µg/mL
MIC Streptococcus pneumoniae (GC 4565) ([4]; Streptococcus pneumoniae (GC 4565)): 2 µg/mL (≈ 1.39 µM)
MIC Streptococcus pyogenes (GC 4563) ([4]; Streptococcus pyogenes (GC 4563)): <0.5 µg/mL
MIC Streptococcus pneumoniae (ATCC 6301) ([4]; strain ATCC 6301): <0.5 µg/mL
MIC Streptococcus pneumoniae (GC 1894) ([4]; strain GC 1894): <0.5 µg/mL
MIC Streptococcus pyogenes (GC 4563) ([4]; strain GC 4563): <0.5 µg/mL
MIC Streptococcus agalactiae (GC 4564) ([4]; strain GC 4564): 1 µg/mL (≈ 0.694 µM)
MIC Streptococcus pneumoniae (GC 4565) ([4]; strain GC 4565): 2 µg/mL (≈ 1.39 µM)
SMILES: CC(c1ccccc1)C1NC(=O)CNC(=O)C(CO)NC(=O)C(C(O)C2CNC(=N)N2C2OC(CO)C(O)C(O)C2O)NC(=O)C(C(O)C2CNC(=N)N2)NC(=O)C(Cc2ccc(OC3OC(CO)C(OC4OC5COC(c6ccc7c(c6)OCCO7)OC5C(O)C4O)C(O)C3O)cc2)NC1=O (stereo not drawn) [Example 149]
MIC Staphylococcus haemolyticus (GC 4546) ([3]; strain GC 4546): 1 µg/mL (≈ 0.694 µM)
